Assay results taken from patent US10941114B2, “Small molecule lipid II inhibitors” (University Of Maryland, Baltimore, priority 2015, dated 2021).
Counter-ions that a name gives are not always drawn. Like-named read-outs stand apart in the source and are kept apart here.

Experiments:
Assay in all cases: Antibacterial activity assay (MIC, broth dilution)
Format in all cases: cell-based
[1] = tested on: Staphylococcus aureus; settings: for MIC SA USA300: Staphylococcus aureus USA 300 strain, broth microdilution; for MIC: Staphylococcus aureus
[2] = tested on: Enterococcus faecalis; settings: for MIC EF 15951: Enterococcus faecalis 15951, broth microdilution; for MIC: Enterococcus faecalis
[3] = tested on: Enterococcus faecium; settings: Enterococcus faecium
Experimental: (§1) Determination of the Minimal Inhibitory Concentrations (MIC) by dilution was carried out by broth dilution according to CLSI standards. See CLSI, Methods for Dilution Antimicrobial Susceptibility Tests for Bacteria That Grow Aerobically; Approved Standard—Eighth Edition. 2009, the contents of which are hereby incorporated by reference. Briefly, the minimum inhibitory concentration MIC, is the lowest concentration of a compound that prevents visible growth of a bacterium, in other words at which it has bacteriostatic activity.
For these tests, cation-adjusted Mueller Hinton broth, containing 10% brain-heart infusion (BHI) was used. Concentrations (MIC) are given in μg/mL. The compound was […].
(§2) Compounds were tested for MIC by methods known in the art and described in CLSI, Methods for Dilution Antimicrobial Susceptibility Tests for Bacteria That Grow Aerobically; Approved Standard—Tenth Edition. CLSI document M07-A10. Wayne, Pa.: Clinical and Laboratory Standards Institute, 2015, which is hereby incorporated by reference for these methods.
(§3) Selected compounds also were tested by broth microdilution methods known in the art and described in CLSI, Methods for Dilution Antimicrobial Susceptibility Tests for Bacteria That Grow Aerobically; Approved Standard—Tenth Edition. CLSI document M07-A10. Wayne, Pa.: Clinical and Laboratory Standards Institute, 2015, which is hereby incorporated by reference. Structures of selected compounds in the tables are listed below.

[4] = tested on: Acinetobacter baumannii; settings: Acinetobacter baumannii; Table 16; CLSI M07-A10 dilution method; read-out: MIC A. baumannii
Experimental: as §1, §2, §3

[5] = cation-adjusted Mueller Hinton broth, 10% BHI, read-out: MIC E. faecalis 51299
[6] = cation-adjusted Mueller Hinton broth, 10% BHI, read-out: MIC E. faecalis 51575
[7] = cation-adjusted Mueller Hinton broth, 10% BHI, read-out: MIC E. faecalis C99707
[8] = cation-adjusted Mueller Hinton broth, 10% BHI, read-out: MIC E. faecium C110914
[9] = cation-adjusted Mueller Hinton broth, 10% BHI, read-out: MIC E. faecium IH79985
[10] = cation-adjusted Mueller Hinton broth, 10% BHI, read-out: MIC E. faecium S1559
[11] = Table 16, CLSI M07-A10 dilution method, read-out: MIC S. aureus
[12] = Table 16, CLSI M07-A10 dilution method, read-out: MIC E. faecium

With `CN(CCC#N)c1ccc(/C=C/c2cc(-c3ccc(F)cc3)cc(-c3ccc(Br)cc3)[n+]2C)cc1.[I-]` [Compound 2jc39-4] the MIC SA USA300 [1] was 16 µg/mL and the MIC EF 15951 [2] was 16 µg/mL.
`CN(C)c1ccc(/C=C/c2cc(-c3ccc(Cl)cc3)cc(-c3ccc(F)cc3)[n+]2C)cc1.[I-]` [Compound 2jc43-1, (E)-4-(4-chlorophenyl)-2-(4-(dimethylamino)styryl)-6-(4-fluorophenyl)-1-methylpyridin-1-ium iodide salt] showed an MIC SA USA300 [1] of 4 µg/mL and an MIC EF 15951 [2] of 2 µg/mL.
For `CN(CCC#N)c1ccc(/C=C/c2cc(-c3ccc(Cl)cc3)cc(-c3ccc(F)cc3)[n+]2C)cc1.[I-]` [Compound 2jc43-2, (E)-4-(4-chlorophenyl)-2-(4-((2-cyanoethyl)(methyl)amino)styryl)-6-(4-fluorophenyl)-1-methylpyridin-1-ium iodide salt], the MIC SA USA300 [1] was 2 µg/mL and the MIC EF 15951 [2] was 2 µg/mL.
In the case of `CN(C)c1ccc(/C=C/c2cc(-c3ccc(Cl)cc3)cc(-c3ccc(Br)cc3)[n+]2C)cc1.[I-]` [Compound 2jc43-3, (E)-2-(4-bromophenyl)-4-(4-chlorophenyl)-6-(4-(dimethylamino)styryl)-1-methylpyridin-1-ium iodide salt], the MIC SA USA300 [1] was 2 µg/mL and the MIC EF 15951 [2] was 2 µg/mL.
For `CN(CCC#N)c1ccc(/C=C/c2cc(-c3ccc(Cl)cc3)cc(-c3ccc(Br)cc3)[n+]2C)cc1.[I-]` [Compound 2jc43-4, (E)-2-(4-bromophenyl)-4-(4-chlorophenyl)-6-(4-((2-cyanoethyl)(methyl)amino)styryl)-1-methylpyridin-1-ium iodide salt], the MIC SA USA300 [1] was 32 µg/mL and the MIC EF 15951 [2] was 16 µg/mL.
Compound `CN(C)c1ccc(/C=C/c2cc(-c3ccc(N(C)C)cc3)cc(-c3ccc(F)cc3)[n+]2C)cc1.[I-]` [Compound 3jc01-1, (E)-4-(4-(dimethylamino)phenyl)-2-(4-(dimethylamino)styryl)-6-(4-fluorophenyl)-1-methylpyridin-1-ium iodide salt] has an MIC SA USA300 [1] of 2 µg/mL and an MIC EF 15951 [2] of 1 µg/mL.
`CN(C)c1ccc(-c2cc(/C=C/c3ccc(N(C)CCC#N)cc3)[n+](C)c(-c3ccc(F)cc3)c2)cc1.[I-]` [Compound 3jc01-2, (E)-2-(4-((2-cyanoethyl)(methyl)amino)styryl)-4-(4-(dimethylamino)phenyl)-6-(4-fluorophenyl)-1-methylpyridin-1-ium iodide salt] gave an MIC SA USA300 [1] of 32 µg/mL and an MIC EF 15951 [2] of 16 µg/mL.
`CN(C)c1ccc(/C=C/c2cc(-c3ccc(N(C)C)cc3)cc(-c3ccc(Br)cc3)[n+]2C)cc1.[I-]` [Compound 3jc01-3, (E)-2-(4-bromophenyl)-4-(4-(dimethylamino)phenyl)-6-(4-(dimethylamino)styryl)-1-methylpyridin-1-ium iodide salt] gave an MIC SA USA300 [1] of 1 µg/mL and an MIC EF 15951 [2] of 1 µg/mL.
Work on `CN(C)c1ccc(-c2cc(/C=C/c3ccc(N(C)CCC#N)cc3)[n+](C)c(-c3ccc(Br)cc3)c2)cc1.[I-]` [Compound 3jc01-4, (E)-2-(4-bromophenyl)-6-(4-((2-cyanoethyl)(methyl)amino)styryl)-4-(4-(dimethylamino)phenyl)-1-methylpyridin-1-ium iodide salt] yielded an MIC SA USA300 [1] of 32 µg/mL and an MIC EF 15951 [2] of 32 µg/mL.
`CN(CCC#N)c1ccc(/C=C/c2cc(-c3ccc(N(C)CCC#N)cc3)cc(-c3ccc(F)cc3)[n+]2C)cc1.[I-]` [Compound 3jc01-6, (E)-4-(4-((2-cyanoethyl)(methyl)amino)phenyl)-2-(4-((2-cyanoethyl)(methyl)amino)styryl)-6-(4-fluorophenyl)-1-methylpyridin-1-ium iodide salt] showed an MIC SA USA300 [1] of 1 µg/mL and an MIC EF 15951 [2] of 8 µg/mL.
In the case of `CN(C)c1ccc(/C=C/c2cc(-c3ccc(N(C)CCC#N)cc3)cc(-c3ccc(Br)cc3)[n+]2C)cc1.[I-]` [Compound 3jc01-7], the MIC SA USA300 [1] was 1 µg/mL and the MIC EF 15951 [2] was 2 µg/mL.
Work on `CN(CCC#N)c1ccc(/C=C/c2cc(-c3ccc(N(C)CCC#N)cc3)cc(-c3ccc(Br)cc3)[n+]2C)cc1.[I-]` [Compound 3jc01-8] yielded an MIC SA USA300 [1] of 1 µg/mL and an MIC EF 15951 [2] of 2 µg/mL.
`Cc1ccc(-c2cc(/C=C/C=C3/N(C)c4ccccc4C3(C)C)[o+]c(-c3ccc(C)cc3)c2)cc1` [Compound 6jc67A, 2,4-di-p-tolyl-6-((1E,3E)-3-(1,3,3-trimethylindolin-2-ylidene)prop-1-en-1-yl)pyrylium boron tetrafluoride salt] was tested, and the MIC [2, 5] was 1 µg/mL, the MIC [2, 6] was 1 µg/mL and the MIC [2, 7] was 1 µg/mL. It also gave an MIC [3, 8] of 1 µg/mL, an MIC [3, 9] of 2 µg/mL and an MIC [3, 10] of 1 µg/mL.
Compound `CCc1ccc(-c2cc(/C=C/c3cc4c5c(c3)CCCN5CCC4)[o+]c(-c3ccc(CC)cc3)c2)cc1` [Compound 6jc69-1, (E)-2,4-bis(4-ethylphenyl)-6-(2-(1,2,3,5,6,7-hexahydropyrido[3,2,1-ij]quinolin-9-yl)vinyl)pyrylium boron tetrafluoride salt] has an MIC [2, 5] of 1 µg/mL, an MIC [2, 6] of 2 µg/mL and an MIC [2, 7] of 1 µg/mL. The MIC [3, 8] was 4 µg/mL, the MIC [3, 9] was 8 µg/mL and the MIC [3, 10] was 2 µg/mL.
`Cc1ccc(-c2cc(/C=C/c3cc4c5c(c3)CCCN5CCC4)[o+]c(-c3ccc(C)c(C)c3)c2)cc1C` [Compound 6jc69-3, (E)-2,4-bis(3,4-dimethylphenyl)-6-(2-(1,2,3,5,6,7-hexahydropyrido[3,2,1-ij]quinolin-9-yl)vinyl)pyrylium boron tetrafluoride salt] showed an MIC [2, 5] of 1 µg/mL, an MIC [2, 6] of 2 µg/mL and an MIC [2, 7] of 1 µg/mL. The MIC [3, 8] was 2 µg/mL, the MIC [3, 9] was 4 µg/mL and the MIC [3, 10] was 2 µg/mL.
Compound `CN(C)c1ccc(/C=C/c2cc(-c3ccc(Br)cc3)cc(-c3ccc(Br)cc3)[n+]2C)cc1.[I-]` [Compound 9, (E)-2,4-bis(4-bromophenyl)-6-(4-(dimethylamino)styryl)-1-methylpyridin-1-ium iodide] has an MIC [1, 11] of 1 µg/mL, an MIC [3, 12] of 8 µg/mL and an MIC [4] of 8 µg/mL.
`Cc1ccc(-c2cc(/C=C/c3ccc(N(C)C)cc3)[n+](C)c(-c3ccc(Br)cc3)c2)cc1` [Compound 9a] was tested, and the MIC [1, 11] was 0.5 µg/mL, the MIC [3, 12] was 4 µg/mL and the MIC [4] was 4 µg/mL.
For `CN(C)c1ccc(/C=C/c2cc(-c3cccc(Br)c3)cc(-c3ccc(Br)cc3)[n+]2C)cc1` [Compound 9b], the MIC [1, 11] was 1 µg/mL, the MIC [3, 12] was 2 µg/mL and the MIC [4] was 16 µg/mL.
With `CN(C)c1ccc(/C=C/c2cc(-c3ccc(Cl)cc3)cc(-c3ccc(Br)cc3)[n+]2C)cc1.[I-]` [Compound 9c, (E)-2-(4-bromophenyl)-4-(4-chlorophenyl)-6-(4-(dimethylamino)styryl)-1-methylpyridin-1-ium iodide] the MIC [1, 11] was 0.5 µg/mL, the MIC [3, 12] was 4 µg/mL and the MIC [4] was 16 µg/mL.
`Cc1ccc(/C=C/c2cc(-c3ccc(Br)cc3)cc(-c3ccc(Br)cc3)[n+]2C)cc1.[I-]` [Compound 9d, (E)-2,4-bis(4-bromophenyl)-1-methyl-6-(4-methylstyryl)pyridin-1-ium iodide] was tested, and the MIC [1, 11] was 1 µg/mL, the MIC [3, 12] was 4 µg/mL and the MIC [4] was > 64 µg/mL.
`CC[n+]1c(/C=C/c2ccc(N(C)C)cc2)cc(-c2ccc(Br)cc2)cc1-c1ccc(C)cc1.[I-]` [Compound 9e1, (E)-4-(4-bromophenyl)-2-(4-(dimethylamino)styryl)-1-ethyl-6-(p-tolyl)pyridin-1-ium iodide] gave an MIC [1, 11] of 2 µg/mL, an MIC [3, 12] of 2 µg/mL and an MIC [4] of 4 µg/mL.
`CC[n+]1c(/C=C/c2ccc(N(C)CCO)cc2)cc(-c2ccc(Br)cc2)cc1-c1ccc(C)cc1` [Compound 9e2] was tested, and the MIC [1, 11] was 2 µg/mL, the MIC [3, 12] was 4 µg/mL and the MIC [4] was 4 µg/mL.
In the case of `CCC[n+]1c(/C=C/c2ccc(N(C)C)cc2)cc(-c2ccc(Br)cc2)cc1-c1ccc(C)cc1.[I-]` [Compound 9e3, (E)-4-(4-bromophenyl)-2-(4-(dimethylamino)styryl)-1-propyl-6-(p-tolyl)-pyridin-1-ium iodide], the MIC [1, 11] was 0.5 µg/mL, the MIC [3, 12] was 2 µg/mL and the MIC [4] was 2 µg/mL.
`CCN(CC)c1ccc(/C=C/c2cc(-c3ccc(Br)cc3)cc(-c3ccc(Br)cc3)[n+]2C)cc1.[I-]` [Compound 9f, (E)-2,4-bis(4-bromophenyl)-6-(4-(diethylamino)styryl)-1-methylpyridin-1-ium iodide] showed an MIC [1, 11] of 1 µg/mL, an MIC [3, 12] of 2 µg/mL and an MIC [4] of 32 µg/mL.
With `CN(CCC#N)c1ccc(/C=C/c2cc(-c3ccc(F)cc3)cc(-c3ccc(F)cc3)[o+]2)cc1.F[B-](F)(F)F` [drawing 385] the MIC ([1]; Table 21, read-out: Staphylococcus aureus MIC) was > 64 µg/mL and the MIC ([2]; Table 21, read-out: Escherichia feacalis MIC) was > 64 µg/mL.
Compound “(E)-4-(4-((2-cyanoethyl)(methyl)amino)phenyl)-2-(4-(dimethylamino)styryl)-6-(4-fluorophenyl)-1-methylpyridin-1-ium iodide salt [Compound 3jc01-5]” has an MIC SA USA300 [1] of 1 µg/mL and an MIC EF 15951 [2] of 4 µg/mL.
